Some test systems named below: ACHN; HCC 2998; HOP-92; Hs-578T; LOX IMVI; MCF7; MDA-MB-435; MDA-N; Malme-3M; OVCAR-3; OVCAR-5; OVCAR-8; PC-3; SF-268; SF-295; SR; SW-620; TK-10; UO-31; EKVX.
Holding throughout (experiment): NCI anticancer screen, dose series, 48 h

The source of these data is ChEMBL document CHEMBL1201862, “PubChem BioAssay data set” (2004).

The structures appear in SMILES notation.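 Test compounds were applied to cells in 96-well plates for 48 hours at 5 doses. GI50 marks 50% less growth.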 Activity calls are given as the source filed them. Rule as the data show it: active = GI50 up to about 1.1 µM and inactive = higher.

For `CC1(C)C2CC(O)C1(C)CC2=O` (centres undefined), the GI50 in the assay with ACHN, in the assay on HCC 2998, in the assay with HOP-92, with Hs-578T, in the assay on LOX IMVI and in the assay with MCF7 was > 100 µM (inactive) each time. For the same compound, the GI50 in the assay on MDA-MB-435, in the assay on MDA-N, with Malme-3M, with OVCAR-3, in the assay on OVCAR-5 and in the assay on OVCAR-8 was > 100 µM (inactive) throughout. For the same compound, the GI50 in the assay on PC-3, in the assay on SF-268, with SF-295, with SR, in the assay with SW-620 and in the assay with TK-10 was > 100 µM (inactive) each time. The GI50 in the assay on UO-31 is > 100 µM (inactive).

For `N#Cc1c(-c2ccco2)c2c(n(C3OC(CO)C(O)C(O)C3O)c1=S)CCCC2` (centres undefined), the GI50 in the assay on ACHN, in the assay on EKVX, with HCC 2998, in the assay on HOP-92, in the assay on Hs-578T and in the assay with LOX IMVI was > 100 µM (inactive) each time. Further, the GI50 in the assay on MCF7, in the assay on MDA-MB-435, with MDA-N, in the assay with Malme-3M, in the assay on OVCAR-3 and in the assay with OVCAR-5 was > 100 µM (inactive) throughout. The GI50 in the assay on OVCAR-8, in the assay with PC-3, in the assay on SF-268, in the assay with SF-295, with SR and in the assay on TK-10 was > 100 µM (inactive) in each case.

As to `FC(F)(F)c1cccc(-c2nc3ccccc3c3c2[C@@]2(N4CCCC4)CCCC[C@@H]32)c1`, the GI50 is 28.7 µM (inactive) in the assay on EKVX; 13.2 µM (inactive) with HOP-92; 43.6 µM (inactive) in the assay with Hs-578T; 18.1 µM (inactive) with LOX IMVI; 20 µM (inactive) with MCF7; 23.6 µM (inactive) in the assay with MDA-MB-435. The GI50 in the assay with MDA-N is 32.2 µM (inactive); with Malme-3M it was 32.9 µM (inactive); with OVCAR-3, 38.9 µM (inactive); in the assay with OVCAR-5, 34.4 µM (inactive); with PC-3 it was 37 µM (inactive); with SF-268, 33.3 µM (inactive). Further, the GI50 is 26.2 µM (inactive) in the assay with SF-295; 40.9 µM (inactive) in the assay on SR; 36.2 µM (inactive) with SW-620; 30.3 µM (inactive) in the assay with TK-10; 18 µM (inactive) in the assay with UO-31.

On to `CN(C)c1ccc(/C=C/c2ccnc3ccccc23)cc1`, for which the GI50 is 40.3 µM (inactive) in the assay with ACHN; 49 µM (inactive) in the assay with EKVX; > 100 µM (inactive) in the assay on HCC 2998; 93.3 µM (inactive) in the assay with HOP-92; 14.5 µM (inactive) in the assay on Hs-578T; 53.3 µM (inactive) in the assay with LOX IMVI. Besides, the GI50 in the assay with MCF7 is 90.2 µM (inactive); with MDA-MB-435 it was 23.1 µM (inactive); with MDA-N, 17.7 µM (inactive); in the assay on Malme-3M, 53.2 µM (inactive); in the assay on OVCAR-3, > 100 µM (inactive); in the assay on OVCAR-5, > 100 µM (inactive). The GI50 in the assay on PC-3 is > 100 µM (inactive); with SF-268 it was > 100 µM (inactive); with SF-295, 54.7 µM (inactive); with SR, 30.5 µM (inactive); in the assay with SW-620 it was 39.4 µM (inactive); with TK-10, 65.8 µM (inactive). The GI50 in the assay with UO-31 is 43.9 µM (inactive).

`O=[N+]([O-])c1ccc([I+]c2ccccc2)cc1`: the GI50 with ACHN was 6.43 µM (inactive); in the assay with EKVX it was 15.7 µM (inactive); in the assay with HCC 2998, 7.28 µM (inactive); in the assay with HOP-92, 9.79 µM (inactive); with Hs-578T it was 3.85 µM (inactive); in the assay on MCF7 it was 4.97 µM (inactive). The GI50 was 8.2 µM (inactive) in the assay with MDA-MB-435; 6.56 µM (inactive) in the assay on MDA-N; 4.78 µM (inactive) in the assay on Malme-3M; 3.13 µM (inactive) with OVCAR-3; 7.98 µM (inactive) in the assay with OVCAR-5; 5.41 µM (inactive) with OVCAR-8. In addition, the GI50 was 5.52 µM (inactive) in the assay on PC-3; 6.61 µM (inactive) in the assay on SF-268; 1.27 µM (inactive) in the assay on SF-295; 2.53 µM (inactive) in the assay on SR; 4.49 µM (inactive) in the assay on SW-620; 8.91 µM (inactive) in the assay on TK-10. Also, the GI50 in the assay on UO-31 was 6.03 µM (inactive).

Consider `O=[N+]([O-])c1ccc(/C=N/CC2CCCN3CCCCC23)cc1` (centres undefined), for which the GI50 with ACHN is > 100 µM (inactive); in the assay with EKVX, > 100 µM (inactive); in the assay on HCC 2998, 28.6 µM (inactive); in the assay with HOP-92 it was > 100 µM (inactive); in the assay on Hs-578T, > 100 µM (inactive); in the assay on LOX IMVI it was 15.5 µM (inactive). Also, the GI50 in the assay with MCF7 was 24 µM (inactive); in the assay on MDA-MB-435, 61.7 µM (inactive); in the assay on MDA-N it was 34.9 µM (inactive); in the assay on Malme-3M, > 100 µM (inactive); with OVCAR-5, > 100 µM (inactive); in the assay on OVCAR-8, 43.2 µM (inactive). In addition, the GI50 with PC-3 is > 100 µM (inactive); with SF-268, > 100 µM (inactive); with SF-295 it was > 100 µM (inactive); in the assay on SR it was 4.22 µM (inactive); in the assay with SW-620 it was 32.2 µM (inactive); with TK-10, > 100 µM (inactive). In the assay on UO-31, the GI50 is 34.2 µM (inactive).

In the case of `O=C1Oc2ccccc2C(=O)/C1=C/N1C(=O)/C(=C/c2ccc([N+](=O)[O-])cc2)SC1=S`, the GI50 was 15.6 µM (inactive) with ACHN; 54.1 µM (inactive) in the assay on EKVX; 19.1 µM (inactive) with HCC 2998; 1.08 µM (active) in the assay with HOP-92; 6.59 µM (inactive) in the assay with Hs-578T; 29.6 µM (inactive) in the assay on LOX IMVI. The GI50 was 35.6 µM (inactive) in the assay on MCF7; 16.4 µM (inactive) in the assay on MDA-MB-435; 17.2 µM (inactive) with MDA-N; 36.2 µM (inactive) with Malme-3M; 2.71 µM (inactive) in the assay on OVCAR-3; 34.4 µM (inactive) in the assay with OVCAR-5. Also, the GI50 with OVCAR-8 was 21.8 µM (inactive); with PC-3, 18.2 µM (inactive); in the assay with SF-268, 23.2 µM (inactive); with SF-295, 17.7 µM (inactive); in the assay on SR, 31.6 µM (inactive); in the assay with SW-620, 21.8 µM (inactive).

Regarding `CC(=O)N(C(=O)CC(=O)NNCc1ccccc1Cl)c1ccc(Cl)cc1`, the GI50 in the assay with ACHN was > 10 µM (inactive); in the assay with EKVX, 4.99 µM (inactive); in the assay with HCC 2998, > 10 µM (inactive); in the assay on HOP-92 it was > 10 µM (inactive); in the assay with Hs-578T it was > 10 µM (inactive); in the assay with LOX IMVI it was > 10 µM (inactive). Moreover, the GI50 with MCF7 is 5.97 µM (inactive); with MDA-MB-435 it was > 10 µM (inactive); in the assay with MDA-N, > 10 µM (inactive); in the assay on Malme-3M, > 10 µM (inactive); in the assay with OVCAR-3, > 10 µM (inactive); with OVCAR-5 it was > 10 µM (inactive). The GI50 with OVCAR-8, in the assay with PC-3, in the assay on SF-268, in the assay on SF-295, with SR and in the assay on TK-10 was > 10 µM (inactive) each time. Also, the GI50 in the assay with UO-31 is > 10 µM (inactive).

Consider `COc1cc(C2SCC(=O)N2c2ccc(-n3c(-c4ccccc4)nc4ccccc4c3=O)cc2)cc(OC)c1OC` (centres undefined), for which the GI50 is > 100 µM (inactive) in the assay with ACHN; > 100 µM (inactive) in the assay with EKVX; > 100 µM (inactive) with HCC 2998; 28.6 µM (inactive) in the assay on HOP-92; 20.1 µM (inactive) in the assay with Hs-578T; > 100 µM (inactive) in the assay with LOX IMVI. The GI50 with MCF7, with MDA-MB-435, with MDA-N, in the assay on OVCAR-3, with OVCAR-5 and in the assay with OVCAR-8 was > 100 µM (inactive) throughout. Further, the GI50 in the assay with PC-3 was > 100 µM (inactive); with SF-268 it was 82.4 µM (inactive); in the assay on SF-295 it was > 100 µM (inactive); in the assay on SR it was 45.4 µM (inactive); in the assay with SW-620, > 100 µM (inactive); in the assay on TK-10 it was > 100 µM (inactive). Besides, the GI50 in the assay on UO-31 is 8.71 µM (inactive).

In the case of `Oc1nc(S)nc(SCc2c(Cl)c(Cl)c(Cl)c(Cl)c2Cl)n1`, the GI50 is 77.1 µM (inactive) in the assay on ACHN; 40.9 µM (inactive) in the assay with EKVX; 77.8 µM (inactive) in the assay with HOP-92; > 59.2 µM (inactive) in the assay with Hs-578T; > 63.1 µM (inactive) in the assay on LOX IMVI; 37.2 µM (inactive) in the assay on MCF7. For the same compound, the GI50 in the assay on MDA-MB-435 was 36.9 µM (inactive); in the assay on MDA-N, 47.4 µM (inactive); with Malme-3M, 27.5 µM (inactive); in the assay on OVCAR-3, 15.3 µM (inactive); in the assay with OVCAR-5, 98.2 µM (inactive); in the assay with OVCAR-8, 62.7 µM (inactive). In addition, the GI50 in the assay on PC-3 was > 67.9 µM (inactive); with SF-268, 40 µM (inactive); in the assay with SF-295, > 100 µM (inactive); with SR it was 0.184 µM (active); in the assay on SW-620, 32.4 µM (inactive); with TK-10 it was > 80.2 µM (inactive). Further, the GI50 in the assay on UO-31 was 30 µM (inactive).

For `CN(C)/N=N/c1[nH]cnc1C(N)=O` [DACARBAZINE], the GI50 in the assay with HCC 2998 is 45.8 µM (inactive); in the assay with HOP-92, 30.3 µM (inactive); with Hs-578T it was 63 µM (inactive); in the assay with LOX IMVI, 11.7 µM (inactive); in the assay with MCF7, 89.7 µM (inactive); with MDA-MB-435 it was 84.5 µM (inactive). In addition, the GI50 with MDA-N is > 86.1 µM (inactive); in the assay with Malme-3M, 41.5 µM (inactive); in the assay with OVCAR-3 it was 55.3 µM (inactive); in the assay on OVCAR-5, 81.5 µM (inactive); with OVCAR-8 it was 44.5 µM (inactive); with PC-3 it was > 96.4 µM (inactive). Moreover, the GI50 with SF-268 was 63.8 µM (inactive); with SF-295 it was 55.1 µM (inactive); in the assay on SR it was 18.9 µM (inactive); with SW-620, 55.1 µM (inactive); with TK-10, 41.6 µM (inactive); with UO-31, 32.1 µM (inactive).
